Measurements from PubChem BioAssay (NCI).
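Protocol summary: plate cells (96-well), add compound at 5 concentrations, incubate 48 h, interpolate endpoints linearly. TGI denotes the concentration required for complete inhibition of growth.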

Key:
Test in all cases: NCI anticancer screen, dose series, 48 h
NCI-H226 lung = test system: NCI-H226 lung
MDA-MB-435 = test system: MDA-MB-435
T-47D breast = test system: T-47D breast
ACHN renal = test system: ACHN renal
NCI-H522 lung = test system: NCI-H522 lung
HCT-15 colon = test system: HCT-15 colon
SN12C renal = test system: SN12C renal
SNB-19 CNS = test system: SNB-19 CNS
DU-145 prostate = test system: DU-145 prostate
HL-60(TB) leukemia = test system: HL-60(TB) leukemia
SK-MEL-5 melanoma = test system: SK-MEL-5 melanoma
CAKI-1 renal = test system: CAKI-1 renal
SK-MEL-28 melanoma = test system: SK-MEL-28 melanoma
UACC-62 melanoma = test system: UACC-62 melanoma
LOX IMVI melanoma = test system: LOX IMVI melanoma
RPMI-8226 leukemia = test system: RPMI-8226 leukemia
HOP-62 NSCLC = test system: HOP-62 NSCLC
K-562 leukemia = test system: K-562 leukemia
SF-539 CNS = test system: SF-539 CNS
COLO 205 colon = test system: COLO 205 colon
A549 NSCLC = test system: A549 NSCLC
MDA-N = test system: MDA-N
CCRF-CEM leukemia = test system: CCRF-CEM leukemia
SK-MEL-2 melanoma = test system: SK-MEL-2 melanoma
OVCAR-5 ovarian = test system: OVCAR-5 ovarian
MALME-3M melanoma = test system: MALME-3M melanoma
MOLT-4 leukemia = test system: MOLT-4 leukemia
MDA-MB-231 breast = test system: MDA-MB-231 breast
OVCAR-3 ovarian = test system: OVCAR-3 ovarian
KM12 colon = test system: KM12 colon
HCC-2998 colon = test system: HCC-2998 colon
NCI/ADR-RES ovarian = test system: NCI/ADR-RES ovarian
OVCAR-8 ovarian = test system: OVCAR-8 ovarian
OVCAR-4 ovarian = test system: OVCAR-4 ovarian
NCI-H23 lung = test system: NCI-H23 lung
RXF 393 renal = test system: RXF 393 renal
BT-549 breast = test system: BT-549 breast
HOP-92 NSCLC = test system: HOP-92 NSCLC
SF-295 CNS = test system: SF-295 CNS
UACC-257 melanoma = test system: UACC-257 melanoma
TK-10 renal = test system: TK-10 renal
MCF7 breast = test system: MCF7 breast
HS 578T breast = test system: HS 578T breast
SF-268 CNS = test system: SF-268 CNS
UO-31 renal = test system: UO-31 renal
SW-620 colon = test system: SW-620 colon
M14 melanoma = test system: M14 melanoma
U251 CNS = test system: U251 CNS
SK-OV-3 ovarian = test system: SK-OV-3 ovarian
EKVX NSCLC = test system: EKVX NSCLC
786-0 renal = test system: 786-0 renal
SNB-75 CNS = test system: SNB-75 CNS
NCI-H460 lung = test system: NCI-H460 lung
SR leukemia = test system: SR leukemia
HT29 colon = test system: HT29 colon
HCT-116 colon = test system: HCT-116 colon
A498 renal = test system: A498 renal
IGROV1 ovarian = test system: IGROV1 ovarian
PC-3 prostate = test system: PC-3 prostate
DMS 114 small cell lung = test system: DMS 114 small cell lung
HOP-18 NSCLC = test system: HOP-18 NSCLC
M19-MEL melanoma = test system: M19-MEL melanoma
LXFL 529 NSCLC = test system: LXFL 529 NSCLC
DLD-1 colon = test system: DLD-1 colon
KM20L2 colon = test system: KM20L2 colon
DMS 273 small cell lung = test system: DMS 273 small cell lung

SMILES: Cc1cc(O)c(C(C)C)cc1C1(c2cc(C(C)C)c(O)cc2C)OC(=O)c2ccccc21
- TGI (NCI-H226 lung): 6.3 µM
- TGI (MDA-MB-435): 3.01 µM
- TGI (T-47D breast): 6.44 µM
- TGI (ACHN renal): 8.99 µM
- TGI (NCI-H522 lung): 4.48 µM
- TGI (HCT-15 colon): 4.93 µM
- TGI (SN12C renal): 4.35 µM
- TGI (SNB-19 CNS): > 35.1 µM
- TGI (DU-145 prostate): 4.41 µM
- TGI (HL-60(TB) leukemia): 1.24 µM
- TGI (SK-MEL-5 melanoma): 2.99 µM
- TGI (CAKI-1 renal): 18.4 µM
- TGI (SK-MEL-28 melanoma): 3.07 µM
- TGI (UACC-62 melanoma): 2.87 µM
- TGI (LOX IMVI melanoma): 3.53 µM
- TGI (RPMI-8226 leukemia): 3.17 µM
- TGI (HOP-62 NSCLC): 8.75 µM
- TGI (K-562 leukemia): 3.25 µM
- TGI (SF-539 CNS): 3.72 µM
- TGI (COLO 205 colon): 4.96 µM
- TGI (A549 NSCLC): 12.8 µM
- TGI (MDA-N): 3.11 µM
- TGI (CCRF-CEM leukemia): 3.1 µM
- TGI (SK-MEL-2 melanoma): 3.28 µM
- TGI (OVCAR-5 ovarian): 5.92 µM
- TGI (MALME-3M melanoma): 5.21 µM
- TGI (MOLT-4 leukemia): 3.38 µM
- TGI (MDA-MB-231 breast): 4.54 µM
- TGI (OVCAR-3 ovarian): 4.85 µM
- TGI (KM12 colon): 3.33 µM
- TGI (HCC-2998 colon): 3.48 µM
- TGI (NCI/ADR-RES ovarian): 12 µM
- TGI (OVCAR-8 ovarian): 9.14 µM
- TGI (OVCAR-4 ovarian): 5.26 µM
- TGI (NCI-H23 lung): 5.13 µM
- TGI (RXF 393 renal): 3.02 µM
- TGI (BT-549 breast): 5.53 µM
- TGI (HOP-92 NSCLC): 7.78 µM
- TGI (SF-295 CNS): 3.69 µM
- TGI (UACC-257 melanoma): 3.6 µM
- TGI (TK-10 renal): 11.1 µM
- TGI (MCF7 breast): 3.6 µM
- TGI (HS 578T breast): 6.88 µM
- TGI (SF-268 CNS): 4.83 µM
- TGI (UO-31 renal): 7.04 µM
- TGI (SW-620 colon): 4.57 µM
- TGI (M14 melanoma): 3.15 µM
- TGI (U251 CNS): 3.9 µM
- TGI (SK-OV-3 ovarian): > 33.3 µM
- TGI (EKVX NSCLC): 9.25 µM
- TGI (786-0 renal): 5.52 µM
- TGI (SNB-75 CNS): 6.16 µM
- TGI (NCI-H460 lung): 3.99 µM
- TGI (SR leukemia): 4.02 µM
- TGI (HT29 colon): 5.84 µM
- TGI (HCT-116 colon): 3.09 µM
- TGI (A498 renal): 7.1 µM
- TGI (IGROV1 ovarian): 8.89 µM
- TGI (PC-3 prostate): 4.95 µM

SMILES: CN(C)c1ccc(/C=C2\C=Cc3ccccc32)cc1
- TGI (DMS 114 small cell lung): 89.6 µM
- TGI (HOP-18 NSCLC): > 100 µM
- TGI (ACHN renal): > 100 µM
- TGI (NCI-H522 lung): 52.3 µM
- TGI (HCT-15 colon): > 100 µM
- TGI (SN12C renal): > 100 µM
- TGI (SNB-19 CNS): > 100 µM
- TGI (HL-60(TB) leukemia): > 100 µM
- TGI (SK-MEL-5 melanoma): > 100 µM
- TGI (CAKI-1 renal): > 100 µM
- TGI (SK-MEL-28 melanoma): > 100 µM
- TGI (UACC-62 melanoma): > 100 µM
- TGI (M19-MEL melanoma): > 100 µM
- TGI (LOX IMVI melanoma): > 100 µM
- TGI (RPMI-8226 leukemia): > 100 µM
- TGI (HOP-62 NSCLC): > 100 µM
- TGI (K-562 leukemia): > 100 µM
- TGI (SF-539 CNS): > 100 µM
- TGI (COLO 205 colon): > 100 µM
- TGI (A549 NSCLC): > 100 µM
- TGI (CCRF-CEM leukemia): > 100 µM
- TGI (SK-MEL-2 melanoma): > 100 µM
- TGI (OVCAR-5 ovarian): > 100 µM
- TGI (MALME-3M melanoma): > 100 µM
- TGI (LXFL 529 NSCLC): > 100 µM
- TGI (MOLT-4 leukemia): > 100 µM
- TGI (OVCAR-3 ovarian): > 100 µM
- TGI (KM12 colon): > 100 µM
- TGI (HCC-2998 colon): > 100 µM
- TGI (OVCAR-8 ovarian): > 100 µM
- TGI (OVCAR-4 ovarian): > 100 µM
- TGI (NCI-H23 lung): > 100 µM
- TGI (RXF 393 renal): 84.4 µM
- TGI (HOP-92 NSCLC): > 100 µM
- TGI (SF-295 CNS): > 100 µM
- TGI (TK-10 renal): > 100 µM
- TGI (SF-268 CNS): > 100 µM
- TGI (UO-31 renal): > 100 µM
- TGI (SW-620 colon): > 100 µM
- TGI (M14 melanoma): > 100 µM
- TGI (DLD-1 colon): > 100 µM
- TGI (KM20L2 colon): > 100 µM
- TGI (U251 CNS): > 100 µM
- TGI (SK-OV-3 ovarian): > 100 µM
- TGI (786-0 renal): > 100 µM
- TGI (SNB-75 CNS): 57 µM
- TGI (NCI-H460 lung): > 100 µM
- TGI (SR leukemia): > 100 µM
- TGI (HT29 colon): > 100 µM
- TGI (DMS 273 small cell lung): > 100 µM
- TGI (HCT-116 colon): > 100 µM
- TGI (A498 renal): > 100 µM
- TGI (IGROV1 ovarian): > 100 µM
